Among the data in patent US20090318446A1, “4-(1H-Indol-3-yl)-Pyrimidin-2-Ylamine Derivatives and Their Use in Therapy” (Cyclacel Limited, priority 2005, published 2009) are IC50 values, retold here.

For one assay, the target named is CDK2/cyclin A (Homo sapiens, UniProt P24941). Put plainly: Kinase assay CDK2/cyclin A. Type of assay: biochemical. The note with it: Table 2; read-out: Kinase inhibition IC50 CDK2A. Here is the method: (§1) The compounds from the examples above were investigated for their ability to inhibit the enzymatic activity of various protein kinases. This was achieved by measurement of incorporation of radioactive phosphate from ATP into appropriate polypeptide substrates. Recombinant protein kinases and kinase complexes were produced or obtained commercially. Assays were performed using 96-well plates and appropriate assay buffers (typically 25 mM β-glycerophosphate, 20 mM MOPS, 5 mM EGTA, 1 mM DTT, 1 mM […], pH 7.4), into which were added 2-4 μg of active enzyme with appropriate substrates. The reactions were initiated by addition of Mg/ATP mix (15 mM MgCl2+100 μM ATP with 30-50 kBq per well of [γ-^32P]-ATP) and mixtures incubated as required at 30° C. Reactions were stopped on ice, followed by filtration through p81 filterplates or GF/C filterplates (Whatman Polyfiltronics, Kent, UK). After washing 3 times with 75 mM aq orthophosphoric acid, plates were dried, scintillant added and incorporated radioactivity measured in a scintillation counter (TopCount, Packard Instruments, Pangbourne, Berks, UK). Compounds for kinase assay were made up as 10 mM stocks in DMSO and diluted into 10% DMSO in assay buffer. Data was analysed using curve-fitting software (GraphPad Prism version 3.00 for Windows, GraphPad Software, San Diego Calif. USA) to determine IC50 values (concentration of test compound which inhibits kinase activity by 50%).

A further assay concerns the target CDK2/cyclin E (Homo sapiens, UniProt P24941). Put plainly: Kinase assay CDK2/cyclin E. Type of assay: biochemical. Here is the method: as §1
The target in another assay is CDK4/cyclin D1 (Homo sapiens, UniProt P11802). Description: Kinase assay CDK4/cyclin D1. Type of assay: biochemical. Here is the method: as §1
CDK4/cyclin D1, sequence (P11802 whole entry, species assumed): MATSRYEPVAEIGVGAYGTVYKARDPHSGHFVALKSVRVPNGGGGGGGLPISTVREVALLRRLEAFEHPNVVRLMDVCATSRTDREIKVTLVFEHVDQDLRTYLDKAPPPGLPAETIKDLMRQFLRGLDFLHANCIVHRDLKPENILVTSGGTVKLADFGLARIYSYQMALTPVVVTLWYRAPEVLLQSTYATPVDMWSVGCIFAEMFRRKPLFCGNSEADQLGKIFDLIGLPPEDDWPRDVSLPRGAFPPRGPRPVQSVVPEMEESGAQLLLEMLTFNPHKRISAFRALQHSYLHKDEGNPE
CDK4/cyclin D1, sequence (P24385 whole entry partner, species assumed): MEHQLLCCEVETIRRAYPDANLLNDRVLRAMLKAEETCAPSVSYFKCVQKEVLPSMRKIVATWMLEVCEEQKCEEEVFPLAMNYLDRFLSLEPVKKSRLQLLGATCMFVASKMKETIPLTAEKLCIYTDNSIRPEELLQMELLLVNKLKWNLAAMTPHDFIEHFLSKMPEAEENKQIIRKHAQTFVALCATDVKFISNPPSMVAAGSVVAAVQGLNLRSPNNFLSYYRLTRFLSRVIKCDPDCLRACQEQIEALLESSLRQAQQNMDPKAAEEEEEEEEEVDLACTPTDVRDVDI
The next assay concerns the target CDK7/cyclin H (Homo sapiens, UniProt P50613). Put plainly: CDK 7 assay. Type of assay: biochemical. Here is the method:
CTD peptide substrate (biotinyl-Ahx-(Tyr-Ser-Pro-Thr-Ser-Pro-Ser)4-NH2; 1-2 mg/mL) and recombinant human CDK7/cyclin H, CDK9/cyclin TI, or CDK9/cyclin K (0.5-2 μg) were incubated for 45 min at 30° C. in the presence of varying amounts of test compound in 20 mM MOPS pH 7.2, 25 mM β-glycerophosphate, 5 mM EGTA, 1 mM DTT, 1 mM sodium vanadate, 15 mM MgCl2, and 100 μM ATP (containing a trace amount of ^32PγATP) in a total volume of 25 μL in a 96-well microtiter plate. The reaction was stopped by placing the plate on ice for 2 min. Avidin (50 μg) was added to each well, and the plate was incubated at room temp for 30 min. The samples were transferred to a 96-well P81 filter plate, and washed (4×200 μL per well) with 75 mM phosphoric acid. Microscint 40 scintillation liquid (50 μL) was added to each well, and the amount of ^32P incorporation for each sample was measured using a Packard Topcount microplate scintillation counter.

The target in a further assay is T1, aurora-B (Homo sapiens, UniProt Q96GD4).
T1 construct: purchased Upstate, Dundee, UK
T1 sequence (Q96GD4 whole entry): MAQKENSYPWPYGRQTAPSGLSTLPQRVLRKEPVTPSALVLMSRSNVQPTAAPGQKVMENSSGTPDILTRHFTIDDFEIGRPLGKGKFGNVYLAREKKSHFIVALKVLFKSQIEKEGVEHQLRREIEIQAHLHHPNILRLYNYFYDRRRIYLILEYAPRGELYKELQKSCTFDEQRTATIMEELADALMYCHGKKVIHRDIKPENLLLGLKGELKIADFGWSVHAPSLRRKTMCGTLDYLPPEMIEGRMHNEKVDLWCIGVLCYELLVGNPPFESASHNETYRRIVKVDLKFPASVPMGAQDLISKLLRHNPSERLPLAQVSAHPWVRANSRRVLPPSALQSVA
Description: Aurora-B (human) kinase assay. Type of assay: biochemical. The following applies: Table 3; read-out: Kinase inhibition Aurora B. Here is the method:
This was achieved by measurement of incorporation of radioactive phosphate from ATP into Kemptide substrate (LRRASLG), upon phosphorylation by commercially obtained aurora-B (human, Upstate, Dundee, UK). Assays were performed using 96-well plates and appropriate assay buffers (20 mM Tris, 25 mM β-glycerophosphate, 5 mM EGTA, 1 mM DTT, 1 mM sodium vanadate, pH 7.5), into which were added 75 ng of pre-activated enzyme with 500 μM substrate (Kemptide). The reactions were initiated by addition of MgATP mix (15 mM MgCl2+100 μM ATP with 15-25 kBq per well of [γ-^32P]-ATP) and mixtures incubated for 60 min at 30° C. Reactions were stopped by addition of an equal volume of 75 mM aq orthophosphoric acid, followed by filtration through p81 filterplates (Whatman Polyfiltronics, Kent, UK). After washing 4 times with 75 mM aq orthophosphoric acid, plates were dried, scintillant added and incorporated radioactivity measured in a scintillation counter (TopCount, Packard Instruments, Pangbourne, Berks, UK). Compounds for kinase assay were made up as 10 mM stocks in DMSO and diluted into 10% DMSO in assay buffer. Data was analysed using curve-fitting software (XLfit version 4.0.2, IDBS, Guildford, Surrey, UK) to determine IC50 values (concentration of test compound which inhibits kinase activity by 50%).
Aurora-B (human, Upstate, Dundee, UK) was pre-activated immediately prior to kinase assay in appropriate buffers (20 mM Tris, 25 mM β-glycerophosphate, 5 mM EGTA, 1 mM DTT, 1 mM sodium vanadate, pH 7.5) by incubating 15 μg of enzyme with 4 μg INCENP (Upstate, Dundee, UK) in the presence of MgATP mix (15 mM MgCl2+100 μM ATP) for 15 min at 30° C.

In a further assay the test system is Mia-PaCa-2. Put plainly: MTT cytotoxicity assay, Mia-PaCa-2. Type of assay: cell-based. The following applies: Homo sapiens, after incubation. As for the experimental part: (§2) The compounds of the invention were subjected to a standard cellular proliferation assay using human tumour cell lines obtained from the ATCC (American Type Culture Collection, 10801 University Boulevard, Manessas, Va. 20110-2209, USA). […] C.; Thomas, D. G.; Darling, J. L. Anti Cancer Drugs 1996, 7, 331-8; Loveland, B. E.; Johns, T. G.; Mackay, 1. R.; Vaillant, F.; Wang, Z. X.; Hertzog, P. J. Biochemistry International 1992, 27, 501-10). In short: cells were seeded into 96-well plates according to doubling time and incubated overnight at 37° C. […] MTT was made up as a stock of 5 mg/mL in cell media and filter-sterilised. Media was removed from cells followed by a wash with 200 μL PBS. MTT solution was then added at 20 μL per well and incubated in the dark at 37° C. for 4 h MTT solution was removed and cells again washed with 200 μL PBS. MTT dye was solubilised with 200 μL per well of DMSO with agitation. Absorbance was read at 540 nm and data analysed using curve-fitting software (GraphPad Prism version 3.00 for Windows, GrapbPad Software, San Diego Calif. USA) to determine IC50 values (concentration of test compound which inhibits cell growth by 50%).
(Tetrazolium assays rely on reduction of a dye to a coloured formazan, in cell work by metabolically active cells.)

Another assay deals with A2780. Put plainly: MTT cytotoxicity assay, A2780. Type of assay: cell-based. The note with it: Homo sapiens, after incubation. Here is the method: as §2
The mark [1] stands for this setting: Table 2, read-out: Kinase inhibition IC50 CDK2E.
[2] abbreviates: Table 3, read-out: Kinase inhibition CDK2E.
[3] abbreviates: Table 2, read-out: Kinase inhibition IC50 CDK4D1.
Setting [4] is: Table 2, read-out: Kinase inhibition IC50 CDK7H.
The mark [5] stands for this setting: Table 3, read-out: Kinase inhibition CDK4D1.
Setting [6] is: Table 3, read-out: Kinase inhibition CDK7H.

Like-named read-outs stand apart in the source and are kept apart here.

CDK7/cyclin H, sequence (P50613 whole entry): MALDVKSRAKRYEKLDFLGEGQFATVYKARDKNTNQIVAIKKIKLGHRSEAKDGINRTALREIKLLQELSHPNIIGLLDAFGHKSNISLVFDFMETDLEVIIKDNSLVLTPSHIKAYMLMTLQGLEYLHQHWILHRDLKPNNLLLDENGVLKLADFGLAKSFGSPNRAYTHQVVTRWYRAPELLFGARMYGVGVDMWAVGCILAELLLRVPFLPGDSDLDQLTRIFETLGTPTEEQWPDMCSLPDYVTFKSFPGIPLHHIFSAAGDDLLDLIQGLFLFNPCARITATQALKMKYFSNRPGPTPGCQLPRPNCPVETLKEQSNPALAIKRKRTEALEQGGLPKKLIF
CDK7/cyclin H, sequence (P51946 whole entry partner): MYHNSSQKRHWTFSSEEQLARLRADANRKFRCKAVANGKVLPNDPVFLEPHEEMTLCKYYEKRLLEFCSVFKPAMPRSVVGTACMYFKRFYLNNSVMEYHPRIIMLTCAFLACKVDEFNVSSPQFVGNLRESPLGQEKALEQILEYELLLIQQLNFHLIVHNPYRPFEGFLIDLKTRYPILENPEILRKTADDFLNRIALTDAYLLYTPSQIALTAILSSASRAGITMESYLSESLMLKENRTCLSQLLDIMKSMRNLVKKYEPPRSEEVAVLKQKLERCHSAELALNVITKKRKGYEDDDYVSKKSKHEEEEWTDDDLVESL

On to `O=[N+]([O-])c1cccc(Nc2nccc(-c3c[nH]c4ccccc34)n2)c1` [Compound 2, [4-(1H-Indol-3-yl)-pyrimidin-2-yl]-(3-nitro-phenyl)-amine], for which the IC50 is > 100 µM on CDK2/cyclin A; 2.9 µM at CDK2/cyclin E (setting [1]); 2.95 µM at CDK2/cyclin E (setting [2]); > 100 µM at CDK4/cyclin D1 (setting [3]); > 100 µM on CDK7/cyclin H (setting [4]).

Take `Fc1ccc(Nc2nccc(-c3c[nH]c4ccccc34)n2)cc1` [Compound 3, (4-Fluoro-phenyl)-[4-(1H-indol-3-yl)-pyrimidin-2-yl]-amine]: the IC50 was > 100 µM on CDK2/cyclin A; 1.2 µM on CDK2/cyclin E (setting [1]); 1.17 µM at CDK2/cyclin E (setting [2]); > 100 µM at CDK4/cyclin D1 (setting [3]); > 100 µM at CDK7/cyclin H (setting [4]).

On to `COc1ccc(Nc2nccc(-c3c[nH]c4ccccc34)n2)cn1` [Compound 4, [4-(1H-Indol-3-yl)-pyrimidin-2-yl]-(6-methoxy-pyridin-3-yl)-amine], for which the IC50 stood at 2.6 µM on CDK2/cyclin A; 1.3 µM on CDK2/cyclin E (setting [1]); 1.25 µM on CDK2/cyclin E (setting [2]); 1 µM on CDK4/cyclin D1 (setting [3]); 1 µM on CDK4/cyclin D1 (setting [5]); 5.4 µM at CDK7/cyclin H (setting [4]). For the same compound, on CDK7/cyclin H (setting [6]), the IC50 came out at 5.44 µM.

In the case of `c1ccc2c(-c3ccnc(Nc4ccc(N5CCOCC5)cc4)n3)c[nH]c2c1` [Compound 5, [4-(1H-Indol-3-yl)-pyrimidin-2-yl]-(4-morpholin-4-yl-phenyl)-amine], the IC50 at CDK2/cyclin E (setting [1]) is > 10 µM; on CDK7/cyclin H (setting [4]) it was > 10 µM; at aurora-B it was 0.26 µM; in the assay with Mia-PaCa-2, 2.4 µM; in the assay with A2780 it was 1.03 µM.

With `CC(=O)N1CCN(c2ccc(Nc3nccc(-c4c[nH]c5ccccc45)n3)cc2)CC1` [Compound 6, 4-(1H-indol-3-yl)-N-(4-acetylpiperazin-1-ylphenyl)pyrimidin-2-amine], the IC50 at CDK2/cyclin E (setting [2]) is 4.5 µM; at CDK4/cyclin D1 (setting [5]) it was 4.39 µM; on aurora-B, 0.125 µM; in the assay on Mia-PaCa-2, 0.785 µM; in the assay with A2780, 0.789 µM.

Take `c1ccc2c(-c3ccnc(Nc4ccc(N5CCNCC5)cc4)n3)c[nH]c2c1` [Compound 7, 4-(1H-indol-3-yl)-N-(4-piperazin-1-ylphenyl)pyrimidin-2-amine]: the IC50 is 1.93 µM on CDK2/cyclin E (setting [2]); 0.426 µM at CDK4/cyclin D1 (setting [5]); 2.53 µM at CDK7/cyclin H (setting [6]); 0.17 µM on aurora-B; 0.166 µM in the assay with Mia-PaCa-2; 0.086 µM in the assay on A2780.

With `CC1CN(c2ccc(Nc3nccc(-c4c[nH]c5ccccc45)n3)cc2)CC(C)O1` (stereo not drawn) [Compound 9], the IC50 at CDK2/cyclin E (setting [2]) was 4.91 µM; at CDK4/cyclin D1 (setting [5]), 5.46 µM; at CDK7/cyclin H (setting [6]) it was 6.67 µM; at aurora-B it was 0.158 µM; with Mia-PaCa-2, 6.23 µM; in the assay on A2780 it was 5.45 µM.

In the case of `CN(C)c1ccc(Nc2nccc(-c3c[nH]c4ccccc34)n2)cc1` [Compound 10, N′-[4-(1H-indol-3-yl)pyrimidin-2-yl]-N,N-dimethylbenzene-1,4-diamine], the IC50 turned out to be 2.35 µM on CDK2/cyclin E (setting [2]); 5.78 µM at CDK4/cyclin D1 (setting [5]); 5.23 µM on CDK7/cyclin H (setting [6]); 0.729 µM on aurora-B; 5.48 µM in the assay with Mia-PaCa-2; 0.485 µM in the assay with A2780.

Regarding `COc1cc(Nc2nccc(-c3c[nH]c4ccccc34)n2)cc(OC)c1OC` [Compound 12, 4-(1H-indol-3-yl)-N-(3,4,5-trimethoxyphenyl)pyrimidin-2-amine], the IC50 on CDK2/cyclin E (setting [2]) is 1.82 µM; on aurora-B it was 0.0664 µM; with Mia-PaCa-2, 0.077 µM; with A2780, 0.043 µM.

As to `COc1cc(Nc2nccc(-c3c[nH]c4ccccc34)n2)ccc1N1CCOCC1` [Compound 13, 4-(1H-indol-3-yl)-N-(3-methoxyl-4-morpholin-4-ylphenyl)pyrimidin-2-amine], the IC50 on CDK2/cyclin E (setting [2]) worked out at 7.6 µM; at aurora-B it was 0.228 µM; in the assay with Mia-PaCa-2, 6.73 µM; in the assay with A2780, 2.48 µM.

For the compound `CC(=O)N1CCN(c2ccc(Nc3nccc(-c4c(C)[nH]c5ccccc45)n3)cc2)CC1` [Compound 22], the IC50 stood at 5.15 µM at CDK2/cyclin E (setting [2]); 6.66 µM at CDK7/cyclin H (setting [6]); 0.0246 µM on aurora-B; 0.778 µM in the assay with Mia-PaCa-2; 0.299 µM in the assay on A2780.

In the case of `CC(=O)N1CCN(c2ccc(Nc3nccc(-c4c[nH]c5c(C)cccc45)n3)cc2)CC1` [Compound 23], the IC50 on CDK2/cyclin E (setting [2]) was found to be 2.43 µM; on CDK7/cyclin H (setting [6]), 3.47 µM; at aurora-B, 0.0761 µM; in the assay on Mia-PaCa-2, 0.789 µM; with A2780, 0.448 µM.
